US20240173325A1, “METHODS FOR TREATING SPINAL MUSCULAR ATROPHY” (Genentech, Inc., priority 2022, published 2024)
Where two headings read alike, the source gives them in different places.

Assays:
[1] = system: SMN protein; assay: SMN protein levels in whole blood (Roche Elecsys immunoassay); format: in vivo, human
Procedure: Table 7A and Table 7B presents SMN protein levels in whole blood (measured in ng/mL) in the carrier and the subject as the fetal subject and the neonatal subject of this Example, and reference values are shown in Table 7C below. Table 7B is a continuation of Table 7A from 32.5 weeks gestation prior to administration of risdiplam to the carrier through 43 days post-delivery. SMN protein levels in the whole blood were performed using an immunoassay developed by Roche Diagnostics on the Elecsys® platform.

[2] = system: neurofilament; assay: Neurofilament light and phosphorylated heavy chain ELISA on plasma and serum; format: in vivo, human
Procedure: Neurofilament light and phosphorylated heavy chain assays were performed on plasma and serum samples using an ELISA assay, following the manufacturer's instructions (ProteinSimple, San Jose, CA, USA). Two runs were performed, each run having 3 aliquots run on the same plate and the mean value utilized. The average of the two runs was used for interpretation and in constructing FIG. 3 and FIG. 4.
The x-axis in FIG. 3 and FIG. 4 is associated with the date. The x-axis in FIG. 3 includes both prenatal dates (e.g., 32.5 WG or weeks gestation-37.6 WG) and postnatal dates or “PND” (e.g., d0-d43, referring to days post-birth of the fetal subject as the neonatal subject). The y- axis in FIG. 3 and FIG. 4 is associated with the mean neurofilament levels in blood (measured in pg/mL).
Further, in FIG. 3 and FIG. 4, “NF-L” refers to “neurofilament light chain,” which is a neuronal protein highly expressed in large caliber myelinated axons. NF-L levels increase in cerebrospinal fluid and blood proportionally to the degree of axonal damage in a variety of neurological disorders, including inflammatory, neurodegenerative, traumatic and cerebrovascular diseases. See Gaetani (2019) J. Neurol. Neurosurg. Psychiatry. 90(8):870-881. Additionally, “pNF-H” refers to the phosphorylated neurofilament heavy subunit (or phosphorylated NF-H). Further, as shown in FIG. 3 and FIG. 4, “Ser” refers to blood serum and “Pla” refers to blood plasma.

[3] = system: SMN protein; conditions: cited from earlier work
[4] = system: rat fetuses; conditions: dams treated at about 1 mg/kg/day to about 7.5 mg/kg/day; cited from earlier work
[5] = system: rabbit fetuses; conditions: cited from earlier work
[6] = system: FMO1 and FMO3, CYPs 1A1, 2J2, 3A4, and 3A7; conditions: cited from earlier work
[7] = rodents and rabbits; cited from earlier work

## Cc1cn2nc(-c3cc(=O)n4cc(N5CCNC6(CC6)C5)ccc4n3)cc(C)c2n1 [risdiplam, 7-(4,7-diazaspiro[2.5]octan-7-yl)-2-(2,8-dimethylimidazo[1,2-b]pyridazin-6-yl)-4H-pyrido[1,2-a]pyrimidin-4-one]
[1]; at d0, versus reference study (FIG. 2)
  SMN protein level in whole blood relative to reference amounts: about two
[1]; carrier, 32.5 WG (pre-risdiplam)
  SMN protein level in whole blood: 7.7 ng/mL
[1]; carrier, 36 WG
  SMN protein level in whole blood: 6.3 ng/mL
[1]; carrier, 38 WG
  SMN protein level in whole blood: 6.0 ng/mL
[1]; carrier, birth 38.5 WG
  SMN protein level in whole blood: 4.0 ng/mL
[1]; carrier, d 20 post birth
  SMN protein level in whole blood: 5.0 ng/mL
[1]; carrier, d 29 post birth
  SMN protein level in whole blood: 5.1 ng/mL
[1]; carrier, d 43 post birth
  SMN protein level in whole blood: 4.6 ng/mL
[1]; carrier, from prenatal treatment until delivery
  Decline of SMN protein level: 48%
[1]; carrier, postpartum period
  Increase of SMN protein level: 15-28%
[1]; neonatal subject, at d43 following drug initiation on d8
  Increase of SMN protein level: 36%
[1]; neonatal subject, birth 38.5 WG (cord)
  SMN protein level in whole blood: 9.4 ng/mL
[1]; neonatal subject, d 8, no drug since birth
  SMN protein level in whole blood: 4.5 ng/mL
[1]; neonatal subject, d 43, oral 0.15 mg/kg/day from d8
  SMN protein level in whole blood: 6.1 ng/mL
[2]; at delivery
  pNF-H level in neonatal subject compared to the carrier: about 10 fold
[2]; carrier and neonatal subject, FIG. 3 and FIG. 4
  NF-L levels: low, with little change
[2]; carrier, 6-week observation period
  Increase of post-partum pNF-H levels: approximately 2 fold
[2]; neonatal subject
  pNF-H level relative to lowest value in NURTURE study participants: 35%
[2]; neonatal subject versus pre-symptomatic SMN2X2 infants under 6 weeks
  pNF-H level relative to NURTURE median value (20881): 1.4%
[2]; neonatal subject, data point of FIG. 4 correlated to FIG. 5
  pNF-H level: 293 pg/mL
[3]; high dose 0.2 mg/kg/day, 4 W risdiplam
  SMN protein level in whole blood, reference values (median, range): 5.9 (2.8-8.8) ng/mL
[3]; high dose 0.2 mg/kg/day, 12 M risdiplam
  SMN protein level in whole blood, reference values (median, range): 5.7 (2.7-8.6) ng/mL
[3]; high dose 0.2 mg/kg/day, T0
  SMN protein level in whole blood, reference values (median, range): T0: 2.5 (1.1-6.4) ng/mL
[3]; low dose 0.08 mg/kg/day, 4 W risdiplam
  SMN protein level in whole blood, reference values (median, range): 4.5 (2.6-5.6) ng/mL
[3]; low dose 0.08 mg/kg/day, 12 M risdiplam
  SMN protein level in whole blood, reference values (median, range): 3.0 (1.8-5.5) ng/mL
[3]; low dose 0.08 mg/kg/day, T0
  SMN protein level in whole blood, reference values (median, range): T0: 1.3 (0.6-4.8) ng/mL
[4]
  Findings in rat fetuses: weight loss and minor differences in skeletal ossification
[5]; at about 12 mg/kg/day
  Findings in rabbit fetuses: hydrocephalus, an abnormally small gall bladder, and lung variations
[5]; dams treated at about 1 mg/kg/day to about 12 mg/kg/day
  Findings in rabbit fetuses: reduced weight gain and cranium or brain variations
[6]
  Activity of metabolites: inactive
  Metabolizing enzymes: primarily metabolized by flavin monooxygenase 1 and 3 (FMO1 and FMO3) and also by CYPs 1A1, 2J2, 3A4, and 3A7
[7]
  Placental transfer: crosses the placenta
